Measurements published in patent US10195204B2, “Methods of treating hemoglobinopathies” (DUKE UNIVERSITY, priority 2011, dated 2019).
“Also recorded” adds a separate entry of the source. Where two headings read alike, the source gives them in different places.

Columns and labels:
[1] = tested on: SS RBC adhesion to TNF-α-activated HUVECs; assay: Flow chamber adhesion of SS RBCs to TNF-α-activated HUVECs; type: cell-based, human
Procedure: Cells were then washed three times with 5 ml PBS with Ca^2+ and Mg^2+. Prior to adhesion assays, washed treated SS RBCs were labeled with PKH 26 red fluorescent cell linker kit (Sigma-Aldrich, St. Louis, Mo.), following the manufacturer's instructions.
Graduated height flow chambers were used to quantify adhesion of RBCs to HUVECs substantially as previously described in detail.^4, 20 In some adhesion studies, slides coated with HUVECs were treated with human recombinant TNF-α at 10 ng/ml for 4 hours. Slides coated with HUVECs treated or not with TNF-α were then washed three times with 20 ml HBSS with 1.26 mM Ca^2+, 0.9 mM Mg^2+ (Gibco, Grand Island, N.Y.) warmed previously to 37° C. and then fit into a variable height flow chamber. The flow chamber was mounted on the stage of an inverted phase contrast microscope (Diaphot, Nikon Inc., Melville, N.Y.) connected to a thermoplate (Tokai Hit Co., Ltd., Japan) set at 37° C. Cells were observed using a video camera (RS photometrics,) attached to the microscope and connected to a Macintosh G4 computer. RBC (3 ml) suspended at 0.2% (vol/vol) in HBSS with Ca^2+, Mg^2+ were infused into the flow chamber and allowed to adhere to the slide for 10 min without flow. Before exposure to flow, a minimum of three fields at each of seven different locations along a line oriented normal to future flow were examined for the total number of fluorescent cells. Fluid flow (HBSS with Ca^2+, Mg^2+) was then started using a calibrated syringe pump. After exposure to flow, the fields were again examined and the number of adherent cells counted. The fraction of adherent cells was presented as (number of cells attached after exposure to flow)/(cells present per field before flow). The wall shear stress was calculated as:
[formula] τw=wall shear stress (dyne/cm^2); Q=volumetric flow rate (cm^3/s); μ is media viscosity, w is the width of the flow channel, and H(x) is the height of the flow chamber as a function of position along the microscope slide. Several investigators have shown that blood flow in small vessels may be continuous, with shear stresses of 1-2 dynes/cm^2, or flow may be intermittent. Our data were obtained using both intermittent and continuous flow conditions.

[2] = tested on: human SS RBC adhesion to vascular endothelium and vaso-occlusion
Procedure: All animal experiments were carried out in accordance with protocols approved by the Duke University Animal Care and Use Committee. Female athymic homozygous nude mice (nu-/nu-) were between 8-12 weeks of age (Charles River Laboratories, Wilmington, Mass.).
General anesthesia was achieved by intra-peritoneal injection of 100 mg/kg of ketamine (Abbott Laboratory, Chicago, Ill.) and 10 mg/kg of xylazine (Bayer, Shawnee Mission, Kans.). A double-sided titanium frame window chamber was surgically implanted into the dorsal skin fold under sterile conditions using a laminar flow hood. Surgery involved carefully removing the epidermal and dermal layers of one side of a dorsal skin fold, exposing the blood vessels of the subcutaneous tissue adjacent to the striated muscles of the opposing skin fold, and then securing the two sides of the chamber to the skin using stainless steel screws and sutures. A glass window was placed in the chamber to cover the exposed tissue and secured with a snap ring. Subsequently, animals were kept at 32-34° C. until in vivo studies were performed 3 days post-surgery.
Murine recombinant TNF-α was dissolved in normal saline at a concentration of 0.1 mg/mL and mice bearing dorsal-skin window chamber implants were given a single intraperitoneal (IP) injection of 20 μg/kg TNF-α and control animals received same volume of normal saline. […] Thirty minutes later, labeled human SS RBCs (300 μl hematocrit (Hct) 50% in PBS with Ca^2+ and Mg^2+) were then infused. […] Animals were placed on the stage of an Axoplan microscope (Carl Zeiss, Thornwood, N.Y.); temperature was maintained at 37° C. using a thermostatically controlled heating pad. […] Microcirculatory events and cell adhesion were simultaneously recorded using a Trinitron Color video monitor (PVM-1353 MD, Sony) and JVC videocassette recorder (BR-53784, VCR King, Durham, N.C.) connected to a digital video camera C2400 (Hamamatsu Photonics K.K., Japan). Arterioles were distinguished from venules based on: 1) observation of divergent flow as opposed to convergent flow; 2) birefringent appearance of vessel walls using transillumination, which is characteristic of arteriolar vascular smooth muscle; and 3) relatively straight vessel trajectory without evidence of tortuosity. Cell adherence was quantitated by considering cells attached to the vessel walls and immobile for 1 minute. The percentage of the length of vessels with diameters≤25 μm or >25 μm, occupied by SS RBCs was quantified as: % venular length occupied by SS RBCs=length of vessel wall with adherent cells/total length of the vessel segments analyzed×100.

[3] = tested on: ERK1/2; settings: ERK1/2 from epinephrine-treated SS RBCs, n=4
Procedure: Treated packed SS RBCs were lysed for 20 min at 4° C. with lysis buffer (10 mM EDTA, 20 mM Tris, 110 mM NaCl, pH 7.5) containing 2 mM PMSF, 1% Triton X-100, phosphatase inhibitor cocktail (Sigma) and protease inhibitor cocktail (Sigma). ERK1/2 was immunoprecipitated with anti-ERK1/2 antibody at 4° C., and immune complexes were obtained using protein A-agarose (Amersham Biosciences Corp., Piscataway, N.J.). ERK1/2 immunocomplex was examined for ERK1/2 activity using myelin basic protein (MBP) at 2 mg/ml (Millipore) as a substrate and ATP as a phosphate donor with equal protein amounts per assay condition. For the negative control, an equal volume of water was substituted for ERK1/2 substrate. […] The reaction mixture was incubated for 20 min at 30° C., followed by protein separation and immunoblotting using anti-phosphoMBP mAb (Millipore).

[4] = 2 mg/kg U0126 in 0.4% DMSO i.v. 30 min prior to RBC infusion

Row | Structure (SMILES) | SS RBCs adherent to TNF-α-activated HUVECs ([1]; SS RBCs pre-treated with 10 μM U0126) | effect on SS RBC adhesion to TNF-α-activated HUVECs ([1]; SS RBCs treated with MEK inhibitor (10 μM; RDEA119 1 and 10 μM)) | vaso-occlusion ([2]; 0.2 mg/kg U0126 in 0.04% DMSO i.v. 30 minutes prior to RBC infusion) | SS RBC adhesion to vascular endothelium [2, 4] | vaso-occlusion [2, 4] | percentage venular length occupied by SS RBCs ([2]; U0126 at 0.2 mg/kg, vessel diameter >25 μm) | percentage venular length occupied by SS RBCs ([2]; U0126 at 0.2 and 2 mg/kg, vessels 25 μm in diameter, vs placebo) | MBP phosphorylation by immunoprecipitated ERK1/2, increase vs sham-treated cells [3]
1 | N#CC(=C(/N)Sc1ccccc1N)/C(C#N)=C(\N)Sc1ccccc1N [U0126] | 18±5% | significantly reduced; also recorded: significantly inhibited | no apparent vaso-occulsion | very little adhesion | no apparent vaso-occlusion | did not significantly reduce | significant decrease | –
2 | CNC[C@H](O)c1ccc(O)c(O)c1 [epinephrine] | – | – | – | – | – | – | – | 2.1±0.3 fold
